In patent US20070275887A1, “Method of Inhibiting Secretase Activity” (priority 2003, published 2007):
Non-standard residues stand in square brackets, D forms with d. Residues, ends and D or L forms follow the SMILES beside them. *: point of attachment. Nle = CCCC[C@H](N)C(=O)O; Cbz = O=C(OCc1ccccc1)*

Experiments:
[1] = test system: Embryonic fibroblasts (MEFs) from wild-type and synoviolin gene-deficient mice; assay: Effect of a γ-secretase inhibitor on cell proliferation activity (Alamer Blue) in wild-type and synoviolin-deficient MEFs; type: cell-based, mouse; details: MEFs 1×10^3 cells/well, treated 24 hours, Alamer Blue absorbance after 2 hours; Syno −/− compared with Syno +/+ (FIG. 5)
Description: Since there are ethical objections to sensitivity measurement tests using the brains of Alzheimer's patients, another evaluation system needs to be used for evaluating the sensitivity of the secretase inhibitor. The inventors therefore used an evaluation system in which cells were treated with a secretase inhibitor and cell proliferation was used as the marker of secretase inhibition. There are no particular limits on the type of secretase here, and examples include β-secretase and γ-secretase. Consequently, the secretase inhibitor can be either a β-secretase inhibitor or a γ-secretase inhibitor. There are no particular limits on the secretase inhibitor, and examples include L-685,458 (Peptide Institute), (3,5-Difluorophenylacetyl)-Ala-Phg-OBu^t [DAPT] (Peptide Institute), Lys-Thr-Glu-Glu-Ile-Ser-Glu-Val-Asn-Sta-Val-Ala-Glu-Phe (Peptide Institute), Z-Leu-Leu-Nle-CHO (Wako) and the like.
Secretase activity is judged to have been inhibited when cell proliferation activity is suppressed. […]
Embryonic fibroblasts (MEFs) obtained from synoviolin gene-introduced mice (wild-type mice) and synoviolin gene-deficient mice were inoculated to 1×10^3 cells/well on 96-well plates, and cultured overnight. After culture the cells were treated with a γ-secretase inhibitor (Z-Leu-Leu-Nle-CHO, Wako) and cultured for 24 hours, after which Alamer Blue was added and absorbance was measured after 2 hours.

[2] = target: T1, FLAG-tagged synoviolin (human, UniProt Q86TM6 1-617); assay: co-immunoprecipitation (anti-HA or anti-FLAG) and Western blotting from HEK293T cells
T1 construct: not shown: FLAG tag
T1 sequence (Q86TM6 whole entry E545G): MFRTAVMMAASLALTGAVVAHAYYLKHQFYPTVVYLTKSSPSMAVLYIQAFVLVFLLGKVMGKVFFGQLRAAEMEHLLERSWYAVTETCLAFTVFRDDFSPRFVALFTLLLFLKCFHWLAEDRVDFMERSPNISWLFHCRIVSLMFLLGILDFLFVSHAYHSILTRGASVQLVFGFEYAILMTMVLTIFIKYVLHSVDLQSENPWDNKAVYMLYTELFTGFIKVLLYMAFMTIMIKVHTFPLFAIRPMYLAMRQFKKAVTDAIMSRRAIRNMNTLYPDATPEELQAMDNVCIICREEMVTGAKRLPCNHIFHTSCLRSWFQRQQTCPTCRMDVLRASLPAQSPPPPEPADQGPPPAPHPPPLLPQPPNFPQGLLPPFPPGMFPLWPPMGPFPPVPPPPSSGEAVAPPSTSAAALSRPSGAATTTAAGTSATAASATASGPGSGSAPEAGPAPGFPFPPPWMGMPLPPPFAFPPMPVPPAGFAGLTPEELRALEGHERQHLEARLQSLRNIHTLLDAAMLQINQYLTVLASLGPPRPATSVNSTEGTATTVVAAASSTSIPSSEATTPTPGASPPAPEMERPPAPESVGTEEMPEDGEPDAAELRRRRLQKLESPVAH
Description: An HA tag was attached to the N-terminal of this gene, which was inserted into a pcDNA3 vector. Next, Ha-tagged Herp, Herp(-bind) and a blank vector were each strongly expressed together with FLAG-tagged synoviolin in HEK293T cells. After 24 hours whole cell extract (WCE) was extracted, expression of each protein was confirmed, and immunoprecipitation was performed with anti-HA antibodies or anti-FLAG antibodies.

binding result [2]	Molecule	effect of the γ-secretase inhibitor on cell proliferation activity [1]
–	CCCC[C@@H](C=O)NC(=O)[C@H](CC(C)C)NC(=O)[C@H](CC(C)C)NC(=O)OCc1ccccc1 [Z-Leu-Leu-Nle-CHO] (Cbz-Leu-Leu-[Nle]-aldehyde)	greater in the cells derived from synoviolin-deficient mice than in the cells derived from wild-type mice
no binding	HA-tagged Herp(-bind) (other, not shown: HA tag at the N-terminal) MESETEPEPVTLLVKSPNQRHRDLELSGDRGWSVGHLKAHLSRVYPERPRPEDQRLIYSGKLLLDHQCLRDLLPKQEKRHVLHLVCNVKSPSKMPEINAKVAESTEEPAGSNRGQYPEDSSSDGLRQREVLRNLSSPGWENISRPEAAQQAFQGLGPGFSAQEIPVVSAPAPAPIHNQFPAENQPANQNAAPQVVVNPGANQNLRMNAQGGPIVEEDDEINRDWLDWTYSAATFSVFLSILYFYSSLSRFLMVMGATVVMYLHHVGWFPFRPRPVQNFPNDGPPPDVVNQDPNNNLQEGTDPETEDPNHLPPDRDVLDGEQTSPSFMSTAWLVFKTFFASLLPEGPPAIAN	–
